Read-outs that look alike come from different tables or passages of the source.
Columns and labels:
[1] = target: AM2 S31N (serine→asparagine mutation at residue 31 in the M2 protein) (Influenza A virus, UniProt P0DOF5, S31N); assay type: cell-based, influenza virus A/Udorn/72
[2] = target: AM2 V27A (valine→alanine mutation at residue 27 in the M2 protein) (Influenza A virus, UniProt P0DOF5, V27A); assay type: cell-based, influenza virus A/Udorn/72

Compound | S31N OOcyte Inhibition at 100 uM (%) [1] | V27A OOcyte Inhibition at 100 uM (%) [2] | S31N OOcyte Inhibition at 100 uM (%) ([1]; pH 5.5) | V27A OOcyte Inhibition at 100 uM (%) ([2]; pH 5.5)
Cn1cc(C(F)(F)F)c(-c2ccc(CNC34CC5CC(CC(C5)C3)C4)s2)n1 [Example 155a, N-((5-(1-methyl-4-(trifluoromethyl)-1H-pyrazol-3-yl)thiophen-2-yl)methyl)adamantan-1-amine] | B (key: (A)=31-95%; (B)=0-30%) | B (key: (A)=31-95%; (B)=0-30%) |  | 
c1ccc2[nH]c(CNC34CC5CC(CC(C5)C3)C4)nc2c1 [Example 92, Adamantan-1-yl-(1H-benzoimidazol-2-ylmethyl)-amine] |  |  | A (key: (A)=31-95%; (B)=0-30%) | B (key: (A)=31-95%; (B)=0-30%)
COc1cccc(COc2ccc(CNC34CC5CC(CC(C5)C3)C4)cc2)c1 [Example 14a, Adamantan-1-yl-[4-(3-methoxy-benzyloxy)-benzyl]-amine] | A (key: (A)=31-95%; (B)=0-30%) | B (key: (A)=31-95%; (B)=0-30%) |  | 
Oc1cccc2ccc(CNC34CC5CC(CC(C5)C3)C4)nc12 [Example 65a, 2-((adamantan-1-ylamino)methyl)quinolin-8-ol] | B (key: (A)=31-95%; (B)=0-30%) | B (key: (A)=31-95%; (B)=0-30%) |  | 
OCc1cc(Br)ccc1CNC12CC3CC(CC(C3)C1)C2 [Example 52a, [2-(Adamantan-1-ylaminomethyl)-5-bromo-phenyl]methanol] | B (key: (A)=31-95%; (B)=0-30%) | B (key: (A)=31-95%; (B)=0-30%) |  | 
Oc1cc(OCc2ccccc2)ccc1CNC12CC3CC(CC(C3)C1)C2 [Example 57, 2-(Adamantan-1-ylaminomethyl)-5-benzyloxy-phenol] |  |  | A (key: (A)=31-95%; (B)=0-30%) | B (key: (A)=31-95%; (B)=0-30%)
